22 compounds from patent US9145411B2, “Substituted amino-pyrimidine derivatives” (Asana Biosciences, LLC, priority 2012, dated 2015) can be followed below.

SMILES strings stand for the structures. Where only a bound is given, the exact number is not on record here.

The target in one assay is T1, mTOR kinase (Homo sapiens, UniProt P42345).
T1 construct: purchased Millipore, USA
Kind of assay: mTOR kinase TR-FRET assay. The class given is biochemical. To be noted: 20 μM ATP. How it is done:
Compound inhibition for mTOR kinase was determined in a homogeneous TR-FRET assay using the Lance® ULight-p70 S6K (Thr 389) peptide (obtained from Perkin-Elmer). The ULight™-labeled synthetic peptide contains the amino acid residues surrounding Thr389 of human p70 S6K. The ULight-p70 S6K peptide is phosphorylated at Thr389 by mTOR. Phosphorylation motif: LGFTYVAP as substrate.
The compound dilution was carried out in 100% DMSO followed by a buffer dilution. The reaction buffer was HEPES (50 mM pH 7.5), EGTA (1 mM), MnCl2 (3 mM). Test compounds at various concentrations were pre-incubated with mTOR (Millipore, USA; 5 ng) for 60 min, and then the Lance® ULight-p70 S6K (Thr 389) peptide (50 nM) was added along with ATP (20 μM). After incubating the reaction mixture for 60 minutes at room temperature, the kinase reaction was terminated by the addition of EDTA (10 mM) followed by the addition of detection mix, i.e., 1 nM Eu-labeled anti-phospho-substrate antibody (Perkin Elmer, USA). The fluorescence emission at […] was measured upon excitation at 340 nm. IC50 values were subsequently determined using a sigmoidal dose-response curve (variable slope) in GraphPad Prism® 5 software.
Compounds of formula (I) caused inhibition of mTOR kinase activity as determined by this assay.
On the technique in general: Time-resolved FRET reads energy transfer from a long-lived donor to a nearby acceptor.

A further assay concerns the target T2, PI3Kα (wild-type) (Homo sapiens, UniProt P42336).
T2 construct: made in house; host or cells: SF9 insect cells
Kind of assay: PI3 Kinase TR-FRET assay, PI3Kα (wild-type). It counts as biochemical. Conditions: wild-type P110/P85α, 10 μM ATP. How it is done: The ability of compounds of the invention to inhibit PI3K activity was determined in a homogeneous TR-FRET assay using a PI3K assay kit (Millipore, USA; cat #33-016) according to manufacturer's instructions. PI3-Kinases (isoforms α, β, γ and δ) catalyze the phosphorylation of phosphatidylinositol, PIP2 to PIP3 in the presence of ATP and Mg^2+. The PIP3 product is detected by displacement of biotin-PIP3 from an energy transfer complex consisting of Europium labeled anti-GST monoclonal antibody, a GST-tagged PH domain, biotinylated PIP3 and Streptavidin-APC. Excitation of Europium in the complex results in an energy transfer to the APC and a fluorescence emission at 665 nm. The PIP3 product displaces biotin-PIP3 from the complex resulting in a loss of energy transfer and thus a decrease in signal.
To test for the ability of compounds to inhibit the activity of PI3Kα (wild-type), exemplary compounds of formula (I) were dissolved in DMSO and directly distributed into 384-well plates at a volume of 0.5 μL. 14.5 μL of P110/P85α/PIP2 mixture in buffer (obtained from the Millipore kit) containing MgCl2 (40 mM) and DTT (5 mM) was added to compound wells and incubated for 60 minutes at room temperature. P110/P85α was expressed in SF9 insect cells and purified nickel column extraction. Five ng of wild-type P110/P85α was used in the assay. The kinase reaction was started by the addition of ATP. The assay concentrations of both PIP2 and ATP were 10 μM. The reaction mixture was incubated for 30 minutes at room temperature and was terminated by the addition of stop mix and detection mix. Fluorescence was measured at 615 and 665 nm upon excitation at 340 nm in a Victor™ V5 fluorometer (Perkin Elmer, USA). The fluorescence emission ratio at 665 to 615 nm, proportional to the kinase activity, was plotted against the compound concentration to generate dose-response curves and IC50 values were determined using GraphPad Prism® 5 software.

T1 sequence (P42345 1362-2549 limits assumed): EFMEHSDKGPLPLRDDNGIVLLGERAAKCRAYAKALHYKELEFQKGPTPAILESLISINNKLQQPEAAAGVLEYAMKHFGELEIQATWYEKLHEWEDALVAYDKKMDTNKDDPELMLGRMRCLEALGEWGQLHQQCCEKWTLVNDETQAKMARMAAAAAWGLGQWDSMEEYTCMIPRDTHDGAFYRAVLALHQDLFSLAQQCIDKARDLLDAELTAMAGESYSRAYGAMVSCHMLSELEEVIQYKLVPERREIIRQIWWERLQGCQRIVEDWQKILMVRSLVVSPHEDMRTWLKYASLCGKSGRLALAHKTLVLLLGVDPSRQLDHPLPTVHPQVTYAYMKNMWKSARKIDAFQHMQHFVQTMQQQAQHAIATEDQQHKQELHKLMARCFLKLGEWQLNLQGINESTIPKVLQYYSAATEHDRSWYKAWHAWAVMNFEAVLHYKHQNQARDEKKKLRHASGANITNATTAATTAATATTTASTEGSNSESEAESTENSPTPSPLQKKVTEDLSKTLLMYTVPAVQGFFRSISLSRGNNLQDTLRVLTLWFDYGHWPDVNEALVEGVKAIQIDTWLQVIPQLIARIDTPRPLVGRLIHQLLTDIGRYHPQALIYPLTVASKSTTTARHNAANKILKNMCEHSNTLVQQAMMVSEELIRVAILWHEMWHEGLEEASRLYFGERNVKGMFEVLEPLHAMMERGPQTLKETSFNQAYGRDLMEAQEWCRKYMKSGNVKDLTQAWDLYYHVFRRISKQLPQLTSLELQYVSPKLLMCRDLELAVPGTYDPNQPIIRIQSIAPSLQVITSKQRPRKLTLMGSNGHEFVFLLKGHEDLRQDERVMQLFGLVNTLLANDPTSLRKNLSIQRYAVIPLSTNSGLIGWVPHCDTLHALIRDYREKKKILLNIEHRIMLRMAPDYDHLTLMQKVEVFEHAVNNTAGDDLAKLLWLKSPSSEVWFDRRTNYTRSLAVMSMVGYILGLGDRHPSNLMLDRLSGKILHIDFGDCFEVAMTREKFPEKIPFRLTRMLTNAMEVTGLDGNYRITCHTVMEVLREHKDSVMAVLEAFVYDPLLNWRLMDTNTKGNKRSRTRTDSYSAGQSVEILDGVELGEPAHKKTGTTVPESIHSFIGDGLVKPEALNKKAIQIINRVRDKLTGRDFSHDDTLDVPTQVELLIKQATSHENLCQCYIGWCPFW
T2 sequence (P42336 whole entry, species assumed): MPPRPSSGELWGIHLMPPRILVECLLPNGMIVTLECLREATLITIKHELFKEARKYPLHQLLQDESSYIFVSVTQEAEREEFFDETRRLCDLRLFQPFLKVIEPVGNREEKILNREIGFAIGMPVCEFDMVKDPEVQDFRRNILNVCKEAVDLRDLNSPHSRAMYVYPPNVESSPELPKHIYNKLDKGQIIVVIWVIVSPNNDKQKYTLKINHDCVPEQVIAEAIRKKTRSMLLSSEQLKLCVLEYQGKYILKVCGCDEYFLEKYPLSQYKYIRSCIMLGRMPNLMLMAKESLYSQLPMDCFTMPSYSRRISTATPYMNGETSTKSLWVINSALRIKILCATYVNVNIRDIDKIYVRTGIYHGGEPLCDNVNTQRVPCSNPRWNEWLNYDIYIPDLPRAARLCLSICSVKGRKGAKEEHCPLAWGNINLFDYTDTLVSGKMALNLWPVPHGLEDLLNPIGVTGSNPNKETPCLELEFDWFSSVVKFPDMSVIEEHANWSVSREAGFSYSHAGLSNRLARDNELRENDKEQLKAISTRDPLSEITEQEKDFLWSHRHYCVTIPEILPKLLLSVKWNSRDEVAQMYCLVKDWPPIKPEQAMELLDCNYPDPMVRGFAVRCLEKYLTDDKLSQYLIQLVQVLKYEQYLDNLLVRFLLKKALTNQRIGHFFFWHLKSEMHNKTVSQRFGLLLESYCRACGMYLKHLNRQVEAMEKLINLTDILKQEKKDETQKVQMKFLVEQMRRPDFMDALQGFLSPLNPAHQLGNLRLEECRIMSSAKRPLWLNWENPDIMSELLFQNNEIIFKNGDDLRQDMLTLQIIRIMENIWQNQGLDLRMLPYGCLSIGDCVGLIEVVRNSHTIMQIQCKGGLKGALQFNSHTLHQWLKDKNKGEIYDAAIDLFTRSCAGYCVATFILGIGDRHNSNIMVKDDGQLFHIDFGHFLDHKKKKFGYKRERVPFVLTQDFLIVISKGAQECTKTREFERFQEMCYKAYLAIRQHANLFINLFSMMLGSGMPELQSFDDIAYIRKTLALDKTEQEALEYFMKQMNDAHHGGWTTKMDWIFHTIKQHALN
T2 sequence (P27986 whole entry partner, species assumed): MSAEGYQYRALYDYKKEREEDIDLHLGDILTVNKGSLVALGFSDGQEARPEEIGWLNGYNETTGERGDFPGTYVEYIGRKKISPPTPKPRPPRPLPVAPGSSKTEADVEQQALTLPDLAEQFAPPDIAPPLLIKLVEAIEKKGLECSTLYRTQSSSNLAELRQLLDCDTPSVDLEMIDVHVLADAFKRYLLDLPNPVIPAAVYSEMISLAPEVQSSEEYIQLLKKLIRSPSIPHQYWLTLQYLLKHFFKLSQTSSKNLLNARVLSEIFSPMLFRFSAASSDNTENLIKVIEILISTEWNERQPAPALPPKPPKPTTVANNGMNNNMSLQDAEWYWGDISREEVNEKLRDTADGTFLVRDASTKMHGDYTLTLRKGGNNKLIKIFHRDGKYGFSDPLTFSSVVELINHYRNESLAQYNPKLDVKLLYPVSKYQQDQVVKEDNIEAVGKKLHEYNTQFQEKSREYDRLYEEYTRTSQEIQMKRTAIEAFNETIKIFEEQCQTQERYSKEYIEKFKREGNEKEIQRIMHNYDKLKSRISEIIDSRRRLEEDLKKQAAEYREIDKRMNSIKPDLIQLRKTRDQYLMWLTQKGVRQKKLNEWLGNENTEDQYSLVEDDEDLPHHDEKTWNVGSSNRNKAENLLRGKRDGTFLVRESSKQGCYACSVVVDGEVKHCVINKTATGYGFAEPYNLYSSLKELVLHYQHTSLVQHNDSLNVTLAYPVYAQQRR

In the case of `Nc1ncc(-c2nc(N3CCOCC3)c3ncc(CN4CCNCC4)cc3n2)cn1` [Example 94, 5-(4-morpholino-7-(piperazin-1-yl-methyl)pyrido[3,2-d]-pyrimidin-2-yl)pyrimidin-2-amine], the half-maximal inhibitory concentration (IC50) at mTOR kinase was 201 to 10000 nM; against PI3Kα (wild-type) it was 50 to 200 nM.
In the same order, the values of `Nc1ncc(-c2nc(N3CCOCC3)c3ncc(-c4cc(NC(=O)c5cccnc5)ccc4F)cc3n2)cn1` [Example 71, N-(3-(2-(2-amino-pyrimidin-5-yl)-4-morpholinopyrido[3,2-d]-pyrimidin-7-yl)-4-fluoro-phenyl)nicotinamide] are < 50 nM and < 50 nM.
In the same order, the values of `Nc1ncc(-c2nc(N3CCOCC3)c3ncc(-c4ccc(NC(=O)C5CC5)cc4F)cc3n2)cn1` [Example 32, N-(4-(2-(2-amino-pyrimidin-5-yl)-4-morpholinopyrido[3,2-d]pyrimidin-7-yl)-3-fluorophenyl)cyclo-propanecarboxamide] are 50 to 200 nM and < 50 nM.
As to `CC(O)C(=O)N1CCN(Cc2cnc3c(N4CCOCC4)nc(-c4cnc(N)nc4)nc3c2)CC1` (centres unmarked) [Example 11, 1-(4-((2-(2-aminopyrimidin-5-yl)-4-morpholinopyrido[3,2-d]pyrimidin-7-yl)-methyl)piperazin-1-yl)-2-hydroxypropan-1-one], the IC50 against mTOR kinase and against PI3Kα (wild-type) was 201 to 10000 nM in each case.
For the compound `Cc1cc(C(=O)Nc2cccc(-c3cnc4c(N5CCOCC5)nc(-c5cnc(N)nc5)nc4c3)c2)[nH]n1` [Example 75, N-(3-(2-(2-amino-pyrimidin-5-yl)-4-morpholinopyrido[3,2-d]pyrimidin-7-yl)phenyl)-3-methyl-1H-pyrazole-5-carboxamide], the IC50 against mTOR kinase and on PI3Kα (wild-type) was < 50 nM throughout.
`CS(=O)(=O)Nc1cncc(-c2cnc3c(N4CCOCC4)nc(-c4cnc(N)nc4)nc3c2)c1` [Example 96, N-(5-(2-(2-amino-pyrimidin-5-yl)-4-morpholinopyrido[3,2-d]-pyrimidin-7-yl)pyridin-3-yl)methanesulfonamide]: the IC50 against mTOR kinase and against PI3Kα (wild-type) was < 50 nM each time.
Turning to `Nc1ncc(-c2nc(N3CCOCC3)c3ccc(-c4cccnc4F)cc3n2)cn1` [Example 19, 5-(7-(2-fluoropyridin-3-yl)-4-morpholino-quinazolin-2-yl)-pyrimidin-2-amine], the IC50 on mTOR kinase and against PI3Kα (wild-type) was > 1000 nM each time.
Take `CC(C)(O)C(=O)Nc1cccc(-c2ccc3c(N4CCOCC4)nc(-c4cnc(N)nc4)nc3c2)c1` [Example 6, N-(3-(2-(2-Aminopyrimidin-5-yl)-4-morpholinoquinazolin-7-yl)phenyl)-2-hydroxy-2-methylpropanamide]: the IC50 on mTOR kinase and against PI3Kα (wild-type) was 50 to 200 nM throughout.
With `CC(C)(O)C(=O)N1CCN(Cc2ccc3c(N4CCOCC4)nc(-c4cnc(N)nc4)nc3c2)CC1` [Example 91, 1-(4-((2-(2-amino-pyrimidin-5-yl)-4-morpholinoquinazolin-7-yl)methyl)piperazin-1-yl)-2-hydroxy-2-methyl-propan-1-one], the IC50 on mTOR kinase and against PI3Kα (wild-type) was 201 to 10000 nM in each case.
As to `CC(=O)Nc1cncc(-c2cnc3c(N4CCOCC4)nc(-c4cnc(N)nc4)nc3c2)c1` [Example 30, N-(5-(2-(2-amino-pyrimidin-5-yl)-4-morpholinopyrido[3,2-d]pyrimidin-7-yl)pyridin-3-yl)acetamide], the IC50 was 201 to 10000 nM on mTOR kinase and < 50 nM against PI3Kα (wild-type).
The corresponding values for `CN1CCN(C(=O)Nc2cccc(-c3ccc4c(N5CCOCC5)nc(-c5cnc(N)nc5)nc4c3)c2)CC1` [Example 87, N-(3-(2-(2-amino-pyrimidin-5-yl)-4-morpholinoquinazolin-7-yl)phenyl)-4-methyl-piperazine-1-carboxamide] are 201 to 10000 nM and < 50 nM.
For the compound `Nc1ncc(-c2nc(N3CCOCC3)c3ccc(-c4cncnc4)cc3n2)cn1` [Example 12, 5-(4-morpholino-7-(pyrimidin-5-yl)quinazolin-2-yl)pyrimidin-2-amine], the IC50 at mTOR kinase and against PI3Kα (wild-type) was 201 to 10000 nM each time.
With `Nc1ncc(-c2nc(N3CCOCC3)c3ccc(-c4cccc(NC(=O)N5CCOCC5)c4)cc3n2)cn1` [Example 88, N-(3-(2-(2-amino-pyrimidin-5-yl)-4-morpholinoquinazolin-7-yl)phenyl)morpholine-4-carboxamide], the half-maximal inhibitory concentration (IC50) against mTOR kinase and at PI3Kα (wild-type) was 50 to 200 nM in each case.
Regarding `CS(=O)(=O)c1cncc(-c2ccc3c(N4CCOCC4)nc(-c4cnc(N)nc4)nc3c2)c1` [Example 18, 5-(7-(5-(methyl-sulfonyl)pyridin-3-yl)-4-morpholinoquinazolin-2-yl)pyrimidin-2-amine], the IC50 at mTOR kinase and against PI3Kα (wild-type) was 201 to 10000 nM throughout.
Turning to `CC(=O)NC1CCN(Cc2ccc3c(N4CCOCC4)nc(-c4cnc(N)nc4)nc3c2)CC1` [Example 93, N-(1-((2-(2-amino-pyrimidin-5-yl)-4-morpholinoquinazolin-7-yl)methyl)piperidin-4-yl)-acetamide], the 50% inhibitory concentration (IC50) against mTOR kinase and against PI3Kα (wild-type) was 201 to 10000 nM in each case.
Take `CC(O)C(=O)N1CCN(Cc2ccc3c(N4CCOCC4)nc(-c4cnc(N)nc4)nc3c2)CC1` (centres unmarked) [Example 90, 1-(4-((2-(2-aminopyrimidin-5-yl)-4-morpholinoquinazolin-7-yl)methyl)piperazin-1-yl)-2-hydroxypropan-1-one]: the IC50 at mTOR kinase and against PI3Kα (wild-type) was 201 to 10000 nM throughout.
As for `CN(C)C(=O)c1cccc(-c2cnc3c(N4CCOCC4)nc(-c4cnc(N)nc4)nc3c2)c1` [Example 41, 3-(2-(2-aminopyrimidin-5-yl)-4-morpholinopyrido[3,2-d]pyrimidin-7-yl)-N,N-dimethylbenzamide], the IC50 against mTOR kinase was 50 to 200 nM; on PI3Kα (wild-type), < 50 nM.
Consider `Nc1ncc(-c2nc(N3CCOCC3)c3ncc(-c4ccc(NC(=O)C5CC5)cc4)cc3n2)cn1` [Example 62, N-(4-(2-(2-amino-pyrimidin-5-yl)-4-morpholinopyrido[3,2-d]pyrimidin-7-yl)-phenyl)cyclopropane-carboxamide], for which the IC50 against mTOR kinase was 50 to 200 nM; on PI3Kα (wild-type) it was < 50 nM.
Consider `C[C@H](O)C(=O)Nc1cccc(-c2ccc3c(N4CCOCC4)nc(-c4cnc(N)nc4)nc3c2)c1` [Example 44], for which the IC50 at mTOR kinase fell in the range of 201 to 10000 nM; against PI3Kα (wild-type), 50 to 200 nM.
The corresponding values for `CN(C)CC(=O)N1CCN(c2cccc(-c3cnc4c(N5CCOCC5)nc(-c5cnc(N)nc5)nc4c3)c2)CC1` [Example 112, 1-(4-(3-(2-(2-amino-pyrimidin-5-yl)-4-morpholinopyrido[3,2-d]pyrimidin-7-yl)-phenyl)piperazin-1-yl)-2-(dimethylamino)ethanone] are < 50 nM and < 50 nM.
In the same order, the values of `CN(C)CC(=O)Nc1cccc(-c2ccc3c(N4CCOCC4)nc(-c4cnc(N)nc4)nc3c2)c1` [Example 42, N-(3-(2-(2-amino-pyrimidin-5-yl)-4-morpholinoquinazolin-7-yl)phenyl)-2-(dimethylamino)-acetamide] are 50 to 200 nM and 201 to 10000 nM.
The corresponding values for `CC(O)C(=O)Nc1cccc(-c2ccc3c(N4CCOCC4)nc(-c4cnc(N)nc4)nc3c2)c1` (centres unmarked) [Example 43, N-(3-(2-(2-amino-pyrimidin-5-yl)-4-morpholinoquinazolin-7-yl)phenyl)-2-hydroxy-propanamide] are < 50 nM and 201 to 10000 nM.

As usually defined, the IC50 is the midpoint of a concentration-inhibition curve. Higher therefore signals weaker potency in that assay.
